Data set [1] is described as follows: BCS classification from solubility and PAMPA permeability. Conditions: predicted from low solubility and low permeability.
The nature of data set [2]: Solubility in microemulsion excipients. The data set is classed as physicochemical. Conditions: for solubility at 72 h: thermodynamic from solid, 25 °C. How it is done: Enhancement of drug solubility is the primary factor considered when evaluating ME components. To determine the solubility of A190-PD-60, an excess amount of A190-PD-60 was added to 1 g of each of the tested oils, surfactants and co-surfactants in glass vials with stoppers. A190-PD-60 and excipients were mixed together and vortexed. The mixtures were kept at a temperature of 25 ± 1.0 °C in an isothermal shaker for 72 h to achieve equilibrium. The mixtures were then centrifuged at 10,000× g for 15 min. The resulting supernatants were filtered using […] membrane filters and concentrations of A190-PD-60 in the filtrates were quantified via HPLC-UV analysis. Oils, emulsifiers, and co-emulsifiers with the highest solubilities were chosen for further miscibility analysis. For this, 2 mL of the selected excipients were mixed and vortexed for 10 min, then allowed to equilibrate for 1 h. The resulting mixtures were visually inspected for transparency and phase separation.

For data set [3], the system named is Caco-2 cells. Briefly: MTT cell viability assay, Caco-2. The format is cell-based, human. Conditions: Caco-2, 50 µM, 24 h and 48 h. As to the method: To evaluate the cytotoxicity of free A190-PD-60 (in 0.2% DMSO in DMEM), vehicle microemulsion, and A190-PD-60-ME against Caco-2 cells and HepG2 cells, an MTT assay using 3-(4,5-dimethylthiazol-2-yl)-2,5-diphenyltetrazolium bromide was performed as described before. Caco-2 and HepG2 cells were first cultured in DMEM supplemented with 10% FBS, penicillin (100 U/mL), and streptomycin (100 μg/mL) at 37 °C in a 5% CO2 humidified incubator. Upon reaching confluence, cells were trypsinized and seeded at 10 × 10^4 cells/well in 96-well plates. After 48 h, the medium was replaced with fresh dilutions of free A190-PD-60, vehicle microemulsion, or A190-PD-60-ME (0.1–50 µM) in DMEM. Controls included untreated cells and cells treated with 0.2% DMSO in DMEM. Following 24 h and 48 h incubation, the medium was replaced with 100 µL of MTT solution (5 mg/mL in PBS) and incubated for 3 h. The supernatant was then removed, and formazan crystals were dissolved in 100 µL DMSO. Absorbance was measured at 540 nm, and cell viability (%) was calculated as (OD of samples/OD of control) × 100.

Data set [4] is described as follows: Bioconversion of prodrugs in rabbit plasma. The data set is classed as in vitro ADME. Conditions: 100 μM prodrug, 37 °C. As to the method: Conversion of the respective prodrugs to the parent drug A190 was assessed in pooled rat and rabbit plasma. Following pre-incubation of plasma at 37 °C for 5 min, stock solution of each prodrug (10 mM) was spiked into the plasma to reach a final concentration of 100 μM. The mixture was incubated at 37 °C, 200 rpm on a temperature-controlled orbital shaker. Incubation mixture (200 μL) was withdrawn at pre-determined time points, and the reaction was terminated by the addition of 700 μL of ice cold ACN. 100 μL of internal standard (0.5 μg/mL of fenofibric acid) was then spiked, and the samples were vortexed and centrifuged at 10,000× g for 10 min. The resulting supernatants were collected and filtered using PTFE filters and injected into HPLC-UV system. The LC system was a reverse phased Shimadzu Prominence (Kyoto, Japan) using a Pursuit 5 C18 column. Isocratic separation was performed with mobile phase consisting of ACN/water (80/20 v/v) containing 0.1% trifluoroacetic acid and monitored at a UV detection of 227 nm.

In brackets after ≈: the same amount, converted by molar mass. Read-outs that look alike come from different tables or passages of the source.

As for `Cc1cc(CNc2cccc(C(=O)OCc3oc(=O)oc3C)c2)ccc1OCc1ccc(F)cc1` [A190-PD-60, (5-Methyl-2-oxo-1,3-dioxol-4-yl)methyl3-((4-((4-Fluorobenzyl)oxy)-3-methylbenzyl)amino)benzoate], the BCS class entry in data set [1] is “BCS Class IV”. The “solubility in Capryol 90 relative to Maisine oil” value in data set [2] was 13.9 fold. Further, the “solubility in Capryol 90 relative to oleic acid” value in data set [2] is recorded as 4.8 fold. Besides, the solubility at 72 h was found to be 4450 ± 310 µg/mL (≈ 9.32 mM) in data set [2] (Capryol 90, oil or lipid, read-out: Solubility in Capryol 90); 9050 ± 40 µg/mL (≈ 19 mM) in data set [2] (Cremophor EL, organic solvent or mixture, read-out: Solubility in Cremophor EL); 6580 ± 190 µg/mL (≈ 13.8 mM) in data set [2] (Labrafil M, oil or lipid, read-out: Solubility in Labrafil M); 4590 ± 50 µg/mL (≈ 9.61 mM) in data set [2] (Lauroglycol FCC, oil or lipid, read-out: Solubility in Lauroglycol FCC); 320 ± 300 µg/mL (≈ 0.67 mM) in data set [2] (Maisine oil, oil or lipid, read-out: Solubility in Maisine oil); 920 ± 40 µg/mL (≈ 1.93 mM) in data set [2] (Oleic acid, oil or lipid, read-out: Solubility in Oleic acid). For the same compound, the solubility at 72 h came to 2170 ± 70 µg/mL (≈ 4.54 mM) in data set [2] (Peceol, oil or lipid, read-out: Solubility in Peceol); 3790 ± 620 µg/mL (≈ 7.94 mM) in data set [2] (Polypropylene glycol, organic solvent or mixture, read-out: Solubility in Polypropylene glycol); 14100 ± 140 µg/mL (≈ 29.5 mM) in data set [2] (Transcutol HP, organic solvent or mixture, read-out: Solubility in Transcutol HP); 9170 ± 70 µg/mL (≈ 19.2 mM) in data set [2] (Tween 80, organic solvent or mixture, read-out: Solubility in Tween 80). Moreover, in data set [3], the “cytotoxicity at highest tested concentration” value is reported as “no significant cytotoxicity”. Also, the half-life at 100 μM in data set [4] (pooled rabbit plasma) was 30 min. Further, the “Prodrug bioconversion half-life (Rabbit plasma)” value in data set [4] (Figure 3E) was 30 min.

The record behind these values is PMC12383972, “Oral Pharmacokinetic Evaluation of a Microemulsion-Based Delivery System for Novel A190 Prodrugs” (Biomolecules, 2025).
